One test deals with E. coli D64. The test can be described thus: stimulating growth of streptomycin-dependent E. coli D64 (paper disc). The note with it: for Growth zone vs E. coli D64 / Growth zone vs E. coli D64, hazy growth zone: 37° C., 45 hours; for Growth zone vs E. coli D64, hazy growth zone: value in parentheses. Format: cell-based. An excerpt:
The results are shown in Table 4 wherein the term "boholmycin" is used for short in referring to boholmycin dihydrochloride tetrahydrate.

The subject of the next test is B. subtilis PCI-219. The test can be described thus: inhibiting growth of B. subtilis PCI-219 (paper disc). The note with it: for Inhibition zone vs B. subtilis PCI-219: 28° C., 18 hours. Format: cell-based. The method, then: Boholmycin dihydrochloride tetrahydrate was tested in comparison with streptomycin, glebomycin, myomycin B and kanamycin in respect to stimulating growth of E. coli D64 and in respect to inhibiting growth of B. subtilis PCI-219. The results are shown in Table 4 wherein the term "boholmycin" is used for short in referring to boholmycin dihydrochloride tetrahydrate.
*^1 8 mm paper disc containing 35 μl of test solution
*^3 Incubation at 28° C. for 18 hours

The test system of a further test is B. anthracis IID-115. The test can be described thus: microbe, parasite or virus in culture. The note with it: Bacillus anthracis, IID115. The test is classed as cell-based.
A further test deals with S. marcescens A22302. The test can be described thus: MIC by serial agar dilution. Format: cell-based. The note with it: Serratia marcescens, A22302.
In the next test the test system is M. flavus D-12. The test can be described thus: MIC by serial agar dilution. Format: cell-based. The note with it: Micrococcus flavus, D12, medium A: Nutrient agar, read-out: MIC.
The subject of test [1] is K. pneumoniae D-11. In words: in vivo efficacy in mice against experimental infection. The note with it: Klebsiella pneumoniae, D11, im, 120 h, read-out: PD50.
Another test concerns P. mirabilis A9554. In words: MIC by serial agar dilution. The note with it: Proteus mirabilis, medium A: Nutrient agar, read-out: MIC. The test is classed as cell-based. (In agar dilution the substance is mixed into plates at graded concentrations.)
For a further test, the system named is P. aeruginosa A20601. In words: MIC by serial agar dilution. The note with it: Pseudomonas aeruginosa; P. aeruginosa A20601, kanamycin resistant strain; medium A: Nutrient agar; read-out: MIC. Format: cell-based.
In a further test the test system is K. pneumoniae A9678. In words: MIC by serial agar dilution. Format: cell-based. The note with it: Klebsiella pneumoniae, medium A: Nutrient agar, read-out: MIC.
A further test relates to E. cloacae A20364. The test can be described thus: MIC by serial agar dilution. The note with it: Enterobacter cloacae; E. cloacae A20364, kanamycin resistant strain; medium A: Nutrient agar; read-out: MIC. The test is classed as cell-based.
In the next test the test system is B. subtilis ATCC6633. In words: MIC by serial agar dilution. The test is classed as cell-based. The note with it: Bacillus subtilis, medium A: Nutrient agar, read-out: MIC.
The next test relates to P. vulgaris A9436. In words: MIC by serial agar dilution. Format: cell-based. The note with it: Proteus vulgaris, medium A: Nutrient agar, read-out: MIC.
The next test relates to P. aeruginosa A9930. In words: MIC by serial agar dilution. The note with it: Pseudomonas aeruginosa, medium A: Nutrient agar, read-out: MIC. Format: cell-based.
The subject of the next test is S. aureus A20239. The test can be described thus: MIC by serial agar dilution. The test is classed as cell-based. The note with it: Staphylococcus aureus, A20239.
The test system of another test is S. marcescens A20019. The test can be described thus: MIC by serial agar dilution. The test is classed as cell-based. The note with it: Serratia marcescens, A20019.
The subject of test [2] is K. pneumoniae D-11. In words: MIC by serial agar dilution. The test is classed as cell-based. The note with it: Klebsiella pneumoniae, D11, medium A: Nutrient agar, read-out: MIC.
The test system of test [3] is E. coli Juhl. In words: MIC by serial agar dilution. The test is classed as cell-based. The note with it: Escherichia coli, medium A: Nutrient agar, read-out: MIC.
In another test the test system is Mycobacterium 607 D87. The test can be described thus: MIC by serial agar dilution. Format: cell-based. The note with it: Mycobacterium, 607D87.
In test [4] the test system is S. aureus Smith. The test can be described thus: MIC by serial agar dilution. The note with it: Staphylococcus aureus. Format: cell-based.
The next test concerns S. aureus 209P. In words: MIC by serial agar dilution. Format: cell-based. The note with it: Staphylococcus aureus, 209P.
Another test has as its system E. coli A20664. In words: MIC by serial agar dilution. The note with it: Escherichia coli; E. coli A20664, kanamycin resistant strain; medium A: Nutrient agar; read-out: MIC. Format: cell-based.
The test system of test [5] is E. coli Juhl. The test can be described thus: in vivo efficacy in mice against experimental infection. The note with it: Escherichia coli, im, 120 h, read-out: PD50.
The next test relates to Mycobacterium ranae. In words: MIC by serial agar dilution. The test is classed as cell-based. The note with it: Mycobacterium.
In a further test the test system is Mycobacterium phlei. The test can be described thus: MIC by serial agar dilution. The test is classed as cell-based. The note with it: Mycolicibacterium phlei.
In another test the test system is E. coli JR35/c600. In words: MIC by serial agar dilution. The note with it: Escherichia coli, JR35/C600. Format: cell-based.
The next test relates to E. coli NIHJ. In words: MIC by serial agar dilution. Format: cell-based. The note with it: Escherichia coli, medium A: Nutrient agar, read-out: MIC.
A further test concerns P. aeruginosa A9843A. In words: microbe, parasite or virus in culture. Format: cell-based. The note with it: Pseudomonas aeruginosa, A9843A.
Test [6] has as its system S. aureus Smith. The test can be described thus: in vivo efficacy in mice against experimental infection. The note with it: Staphylococcus aureus, im, 120 h, read-out: PD50.
Another test relates to Mycobacterium 607 D46. In words: MIC by serial agar dilution. Format: cell-based. The note with it: Mycobacterium 607 D46, kanamycin resistant strain; medium B: No. 1001 medium; read-out: MIC.
For a further test, the system named is M. luteus PCI-1001. In words: MIC by serial agar dilution. Format: cell-based. The note with it: Micrococcus luteus, PCI1001.
Another test has as its system E. cloacae A21006. The test can be described thus: MIC by serial agar dilution. The note with it: Enterobacter cloacae; E. cloacae A21006, kanamycin resistant strain; medium A: Nutrient agar; read-out: MIC. The test is classed as cell-based.
The test system of the next test is E. coli K-12. In words: MIC by serial agar dilution. The test is classed as cell-based. The note with it: Escherichia coli, K12, medium A: Nutrient agar, read-out: MIC.
Setting [7] is: Bacillus subtilis, PCI219, 18 h, read-out: Inhibition zone vs B. subtilis PCI-219.

Values after ≈ are worked out from the molar mass of the structure shown. Like-named read-outs stand apart in the source and are kept apart here.

Take `CN[C@@H]1[C@H](O[C@H]2[C@H](O[C@H]3[C@H](O)[C@@H](O)[C@H](OC(N)=O)[C@@H](O)[C@@H]3N=C(N)N)O[C@@H](C)[C@]2(O)CO)O[C@@H](CO)[C@H](O)[C@H]1O` [glebomycin]: the “Growth zone vs E. coli D64” value is given as 15 mm in the test on E. coli D64 (1 mg/ml) and 27 mm in the test with E. coli D64 (4 mg/ml). The results for the “Inhibition zone vs B. subtilis PCI-219” value in the test with B. subtilis PCI-219 (1 mg/ml) and in the test on B. subtilis PCI-219 (4 mg/ml) were 30 mm and 33 mm, respectively.
`NC[C@H]1O[C@H](O[C@H]2[C@H](O)[C@@H](O[C@H]3O[C@H](CO)[C@@H](O)[C@H](N)[C@H]3O)[C@H](N)C[C@@H]2N)[C@H](O)[C@@H](O)[C@@H]1O` [kanamycin]: the MIC in the test on B. anthracis IID-115 is 0.4 µg/mL (≈ 0.826 µM); against S. marcescens A22302, 50 µg/mL (≈ 103 µM); with M. flavus D-12, 1.6 µg/mL (≈ 3.3 µM); in the test on P. mirabilis A9554, 0.8 µg/mL (≈ 1.65 µM); in the test on P. aeruginosa A20601, greater than 100 µg/mL; in the test on K. pneumoniae A9678, 3.1 µg/mL (≈ 6.4 µM). For the same molecule, the MIC in the test on E. cloacae A20364 is greater than 100 µg/mL; in the test with B. subtilis ATCC6633, 0.2 µg/mL (≈ 0.413 µM); with P. vulgaris A9436 it was 0.2 µg/mL (≈ 0.413 µM); with P. aeruginosa A9930 it was 12.5 µg/mL (≈ 25.8 µM); against S. aureus A20239, greater than 100 µg/mL; against S. marcescens A20019, 1.5 µg/mL (≈ 3.1 µM). The MIC is 0.4 µg/mL (≈ 0.826 µM) in the test with K. pneumoniae D-11 [2]; 1.6 µg/mL (≈ 3.3 µM) in the test with E. coli Juhl [3]; 0.2 µg/mL (≈ 0.413 µM) against Mycobacterium 607 D87; 0.4 µg/mL (≈ 0.826 µM) with S. aureus Smith [4]; 0.8 µg/mL (≈ 1.65 µM) against S. aureus 209P; greater than 100 µg/mL in the test with E. coli A20664. Moreover, the MIC against Mycobacterium ranae is 0.2 µg/mL (≈ 0.413 µM); against Mycobacterium phlei it was 0.4 µg/mL (≈ 0.826 µM); in the test on E. coli JR35/c600 it was greater than 100 µg/mL; in the test with E. coli NIHJ, 0.8 µg/mL (≈ 1.65 µM); in the test with P. aeruginosa A9843A, 6.3 µg/mL (≈ 13 µM); in the test on Mycobacterium 607 D46 it was greater than 100 µg/mL. Further, the MIC was 6.3 µg/mL (≈ 13 µM) in the test on M. luteus PCI-1001, greater than 100 µg/mL with E. cloacae A21006 and 0.8 µg/mL (≈ 1.65 µM) in the test on E. coli K-12. In addition, the ED50 worked out at 1.1 mg/kg in the test with K. pneumoniae D-11 [1], 3.5 mg/kg in the test with E. coli Juhl [5] and 1.1 mg/kg in the test with S. aureus Smith [6]. For the same molecule, in the test with B. subtilis PCI-219 (setting [7]), the zone of inhibition at 100 µg/mL was found to be 30 mm. In addition, in the test with B. subtilis PCI-219 (setting [7]), the zone of inhibition at 400 µg/mL turned out to be 34 mm.
Consider `[H]/N=C(/N)N[C@H]1[C@H](O)[C@@H](O)[C@H](O[C@@H]2O[C@@H](C)[C@](O)(C=O)[C@H]2O[C@@H]2O[C@@H](CO)[C@H](O)[C@@H](O)[C@@H]2NC)[C@@H](N/C(N)=N\[H])[C@@H]1O` [streptomycin], for which the MIC against B. anthracis IID-115 was 0.4 µg/mL (≈ 0.688 µM); against S. marcescens A22302, greater than 100 µg/mL; in the test on M. flavus D-12 it was 0.8 µg/mL (≈ 1.38 µM); in the test with P. mirabilis A9554 it was 1.6 µg/mL (≈ 2.75 µM); in the test with P. aeruginosa A20601, 3.1 µg/mL (≈ 5.33 µM); with K. pneumoniae A9678 it was 6.3 µg/mL (≈ 10.8 µM). The MIC in the test on E. cloacae A20364 was greater than 100 µg/mL; in the test with B. subtilis ATCC6633, 0.8 µg/mL (≈ 1.38 µM); in the test with P. vulgaris A9436 it was 0.4 µg/mL (≈ 0.688 µM); in the test on P. aeruginosa A9930, greater than 100 µg/mL; with S. aureus A20239, greater than 100 µg/mL; against S. marcescens A20019, 25 µg/mL (≈ 43 µM). The MIC is 0.4 µg/mL (≈ 0.688 µM) in the test with K. pneumoniae D-11 [2]; 3.1 µg/mL (≈ 5.33 µM) with E. coli Juhl [3]; 0.4 µg/mL (≈ 0.688 µM) with Mycobacterium 607 D87; 1.6 µg/mL (≈ 2.75 µM) against S. aureus Smith [4]; 1.6 µg/mL (≈ 2.75 µM) against S. aureus 209P; greater than 100 µg/mL with E. coli A20664. Besides, the MIC in the test on Mycobacterium ranae was 0.4 µg/mL (≈ 0.688 µM); in the test on Mycobacterium phlei it was 0.2 µg/mL (≈ 0.344 µM); against E. coli JR35/c600, greater than 100 µg/mL; with E. coli NIHJ, 1.6 µg/mL (≈ 2.75 µM); with P. aeruginosa A9843A, greater than 100 µg/mL; with Mycobacterium 607 D46 it was 0.4 µg/mL (≈ 0.688 µM). Further, the MIC was 3.1 µg/mL (≈ 5.33 µM) against M. luteus PCI-1001, greater than 100 µg/mL with E. cloacae A21006 and 1.6 µg/mL (≈ 2.75 µM) in the test with E. coli K-12. The ED50 in the test on K. pneumoniae D-11 [1] (mice, i.m. just before challenge, K. pneumoniae D-11, 5 days observation) stood at 0.85 mg/kg; with E. coli Juhl [5], 1.4 mg/kg; in the test on S. aureus Smith [6] (mice, i.m. just before challenge, S. aureus Smith, 5 days observation), 1.9 mg/kg. Further, the “Growth zone vs E. coli D64, hazy growth zone” value with E. coli D64 (0.06 mg/ml) stood at 14 mm; in the test with E. coli D64 (0.25 mg/ml), 28 mm. In addition, in the test on E. coli D64 (0.25 mg/ml), the “Growth zone vs E. coli D64” value came to 17 mm. Besides, the zone of inhibition at 60 µg/mL in the test with B. subtilis PCI-219 (setting [7]) turned out to be 32 mm. In addition, the zone of inhibition at 250 µg/mL with B. subtilis PCI-219 (setting [7]) stood at 35 mm.
myomycin B: the “Growth zone vs E. coli D64, hazy growth zone” value with E. coli D64 (0.25 mg/ml) worked out at 28 mm; in the test on E. coli D64 (1 mg/ml), 34 mm. In addition, the “Growth zone vs E. coli D64” value with E. coli D64 (1 mg/ml) is 17 mm. For the same molecule, the “induction/stimulation of growth of streptomycin-dependent E. coli D64” value in the test on E. coli D64 (result in words) is listed as “stimulate the growth”. Further, the “Inhibition zone vs B. subtilis PCI-219” value with B. subtilis PCI-219 (0.25 mg/ml) is given as 29 mm; in the test with B. subtilis PCI-219 (1 mg/ml), 34 mm.
